Literature values, collected in PMC2613028, “Discovery of a Non-Peptidic Inhibitor of West Nile Virus NS3 Protease by High-Throughput Docking” (PLoS Neglected Tropical Diseases, 2009).
Like-named read-outs stand apart in the source and are kept apart here.

Tested on: WNV protease
Set-up: method as in PMID 17064076
Conditions: peptide aldehyde inhibitors

Substance: benzoyl-norleucine-lysine-arginine-arginine-aldehyde [Bz-Nle-Lys-Arg-Arg-H]
- IC50: 4.1 µM
- IC50 (listed as Bz-nKRR-H): 4 µM
